Measured values reported in patent US20070203244A1, “INHIBITORS OF MEMBRANE TYPE-1 MATRIX METALLOPROTEINASE FOR THE TREATMENT OF INSULIN-DEPENDENT DIABETES MELLITUS” (priority 2006, published 2007).
pEC50, pIC50: −log10 of the molar value.

How the values were obtained:
[1] = molecular target: T1, MT1-MMP (Mus musculus, UniProt P53690); test: MT1-MMP-dependent MMP-2 activation in adherent IS-CD8+ cells, gelatin zymography; format: cell-based, NOD mouse; details: Example 1: adherent IS-CD8+ cells on gelatin, 4 h
T1 construct: Endogenous MT1-MMP is latent in non-adherent IS-CD8^+ cells; endogenous in cells; host or cells: IS-CD8+ T cells (TGNFC8 clone, NOD mouse), adherent to gelatin
Experimental: MT1-MMP-dependent MMP-2 Activation and Gelatin Zymography—IS-CD8^+ cells (1×10^6) were either allowed to adhere for 4 h in serum-free unsupplemented Click's medium to plastic coated with 2% gelatin or kept in solution. Under these experimental conditions, the vast majority of cells became attached to gelatin. In 4 h, media samples (30 μl each) were withdrawn and analyzed by gelatin zymography (Deryugina, E. I., et al. (2001)) to identify the proteolytic activity and the activation status of MMP-2 naturally synthesized by IS-CD8^+ cells. Where indicated, cells were supplemented with external purified pro-MMP-2 (20 ng). Pro-MMP-2 was isolated from a conditioned medium of p2AHT2A72 cells derived from an HT1080 fibrosarcoma cell line sequentially transfected with the E1A and MMP-2 cDNAs (Strongin, A. Y., et al. (1995)).
MT1-MMP-dependent MMP-2 activation and gelatin zymography—IS-CD8^+ cells (1×10^6) were either allowed to adhere for 4 h in serum-free unsupplemented Click's medium to the plastic coated with 2% gelatin or kept in solution. In 18 h, media samples (30 μl each) were withdrawn and analyzed by gelatin zymography (Deryugina, E. I., et al. (2001)) to identify the proteolytic activity and the activation status of MMP-2 naturally synthesized by IS-CD8^+ cells. […] Pro-MMP-2 was isolated from a conditioned medium of p2AHT2A72 cells derived from an HT1080 fibrosarcoma cell line sequentially transfected with the E1A and MMP-2 cDNAs (Strongin, A. Y., et al. (1995)).

[2] = test system: CD44 shedding in IS-CD8+ cells; test: CD44 shedding in adherent IS-CD8+ cells, Western blotting; format: cell-based, NOD mouse; details: Example 1: adherent IS-CD8+ cells on gelatin
Experimental: Western Blotting—IS-CD8^+ cells were surface biotinylated for 1 h at 4° C. with 0.1 mg/ml sulfo-NHS-LC-biotin (Pierce, Rockford, Ill.). Following washes to remove biotin, cells were co-incubated for 2 h with MT1-MMP-CAT in serum-free, unsupplemented Click's medium. The cells were then lysed with 50 mM N-octyl-β-D-glucopyranoside in phosphate-buffered saline supplemented with 1 mM CaCl2, 1 mM MgCl2, and protease inhibitor mixture containing phenylmethylsulfonyl fluoride (1 mM) and aprotinin, pepstatin, and leupeptin (1 μg/ml each). Biotin-labeled CD44 was captured from the cell lysate and from the medium aliquots on streptavidin-agarose beads. The captured samples were examined by Western blotting with the CD44 (clone IM7.8.1) antibody to determine the released, soluble, CD44 ectodomain in the medium samples and the residual, membrane-anchored, cellular CD44 in the cell lysates.
Western blotting—IS-CD8^+ cells were surface biotinylated for 1 hr at 4° C. with 0.1 mg/ml of sulfo-NES-LC-biotin (Pierce). Following washes to remove biotin, the labeled cells were allowed to adhere in serum-free medium to plastic coated with 2% type I collagen/gelatin for 4 h or were kept in suspension. Under these experimental conditions, the vast majority of the cells became attached to gelatin. […] The cells were then lysed with 50 mM N-octyl-β-D-glucopyranoside in PBS supplemented with 1 mM CaCl2, 1 mM MgCl2, and protease inhibitor cocktail containing phenylmethylsulfonyl fluoride (1 mM) and aprotinin, pepstatin, and leupeptin (1 μg/ml each). Biotin-labeled CD44 was captured from the cell lysate and from the medium aliquots on streptavidine-Agarose beads. The captured samples were examined by Western blotting with the CD44 (clone IM7.8.1) antibody to determine the released, soluble, CD44 ectodomain in the medium samples and the residual, membrane-anchored, cellular CD44 in the cell lysates.

[3] = test system: CD44; test: Cleavage of cellular CD44 by external MT1-MMP-CAT in IS-CD8+ cells (FACS, Western blotting); format: cell-based, NOD mouse; details: GM6001 50 μM added to cells co-incubated with MT1-MMP-CAT
Experimental: Treatment of Cells with MT1-MMP-CAT—The catalytic domain of MT1-MMP (MT1-MMP-CAT; 3 μg) was co-incubated for 2 h at 37° C. with IS-CD8^+ cells (1×10^7 cells) in 0.2 ml of 50 mM HEPES, 10 Mm CaCl2, 0.5 mM MgCl2, 50 μM ZnCl2, and 0.01% Brij-35 buffer, pH 6.8. Where indicated, GM6001 (50 μM; Chemicon, Temecula, Calif.) was added to the samples. Following treatment, the cells were injected into the irradiated mice or used for DiI labeling, Western blotting, FACS analysis, and other analytical procedures (Savinov, A. Y., et al. (2003); Deryugina, E. I., et al. (2001); Rozanov, D. V., et al. (2001)).
Western Blotting—IS-CD8^+ cells were surface biotinylated for 1 h at 4° C. with 0.1 mg/ml sulfo-NHS-LC-biotin (Pierce, Rockford, Ill.). Following washes to remove biotin, cells were co-incubated for 2 h with MT1-MMP-CAT in serum-free, unsupplemented Click's medium. […]
Monoclonal Antibodies and FACS Analysis—IS-CD8^+ cells were stained with the MT1-MMP (Ab815; Chemicon), CD44 (clone IM7.8.1), CD3 (clone 17A2), and CD49d (clone SG31) monoclonal antibodies (all from BD Biosciences, Rockville, Md.) and the CD29 monoclonal antibody (Chemicon), followed by staining with fluorescein isothiocyanate- or phycoerythrinconjugated secondary antibody (BD Biosciences), and then analyzed on a FACScan flow cytometer (Becton Dickinson, Franklin Lakes, N.J.). […]

[4] = test system: α1-antitrypsin
[5] = molecular target: T2, MMP-9 (Homo sapiens, UniProt P14780); details: cited from earlier work
T2 sequence (P14780 94-707, species assumed): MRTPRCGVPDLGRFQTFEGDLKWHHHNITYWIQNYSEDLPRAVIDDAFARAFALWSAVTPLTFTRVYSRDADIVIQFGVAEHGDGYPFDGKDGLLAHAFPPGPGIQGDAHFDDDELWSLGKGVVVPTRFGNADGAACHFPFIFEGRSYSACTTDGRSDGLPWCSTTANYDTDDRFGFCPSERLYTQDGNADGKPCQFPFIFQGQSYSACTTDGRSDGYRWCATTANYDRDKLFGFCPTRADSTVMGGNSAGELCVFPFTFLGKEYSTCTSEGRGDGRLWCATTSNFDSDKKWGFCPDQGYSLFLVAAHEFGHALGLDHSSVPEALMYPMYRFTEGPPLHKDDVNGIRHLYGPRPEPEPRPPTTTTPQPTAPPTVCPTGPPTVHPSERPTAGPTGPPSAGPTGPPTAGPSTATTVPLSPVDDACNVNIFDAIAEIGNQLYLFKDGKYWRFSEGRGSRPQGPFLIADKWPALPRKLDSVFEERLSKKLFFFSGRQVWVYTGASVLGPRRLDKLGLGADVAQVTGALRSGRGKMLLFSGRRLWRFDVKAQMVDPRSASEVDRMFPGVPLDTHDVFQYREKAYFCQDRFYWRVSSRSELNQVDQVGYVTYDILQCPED

[6] = molecular target: T3, MMP-7 (Homo sapiens, UniProt P09237); details: read-out: IC50 for MMP-7 inhibition; cited from earlier work
T3 sequence (P09237 95-267): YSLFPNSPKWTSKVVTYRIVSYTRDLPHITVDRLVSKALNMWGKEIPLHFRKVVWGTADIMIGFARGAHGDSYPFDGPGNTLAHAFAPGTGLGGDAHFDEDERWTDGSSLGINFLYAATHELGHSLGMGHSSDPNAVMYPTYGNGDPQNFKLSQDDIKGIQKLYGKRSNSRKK

[7] = molecular target: cell surface-associated CD44 of IS-CD8+ T cells (mouse) (UniProt P15379); test: cell-based or functional assay
Chain of cell surface-associated CD44 of IS-CD8+ T cells (mouse) (P15379 23-778): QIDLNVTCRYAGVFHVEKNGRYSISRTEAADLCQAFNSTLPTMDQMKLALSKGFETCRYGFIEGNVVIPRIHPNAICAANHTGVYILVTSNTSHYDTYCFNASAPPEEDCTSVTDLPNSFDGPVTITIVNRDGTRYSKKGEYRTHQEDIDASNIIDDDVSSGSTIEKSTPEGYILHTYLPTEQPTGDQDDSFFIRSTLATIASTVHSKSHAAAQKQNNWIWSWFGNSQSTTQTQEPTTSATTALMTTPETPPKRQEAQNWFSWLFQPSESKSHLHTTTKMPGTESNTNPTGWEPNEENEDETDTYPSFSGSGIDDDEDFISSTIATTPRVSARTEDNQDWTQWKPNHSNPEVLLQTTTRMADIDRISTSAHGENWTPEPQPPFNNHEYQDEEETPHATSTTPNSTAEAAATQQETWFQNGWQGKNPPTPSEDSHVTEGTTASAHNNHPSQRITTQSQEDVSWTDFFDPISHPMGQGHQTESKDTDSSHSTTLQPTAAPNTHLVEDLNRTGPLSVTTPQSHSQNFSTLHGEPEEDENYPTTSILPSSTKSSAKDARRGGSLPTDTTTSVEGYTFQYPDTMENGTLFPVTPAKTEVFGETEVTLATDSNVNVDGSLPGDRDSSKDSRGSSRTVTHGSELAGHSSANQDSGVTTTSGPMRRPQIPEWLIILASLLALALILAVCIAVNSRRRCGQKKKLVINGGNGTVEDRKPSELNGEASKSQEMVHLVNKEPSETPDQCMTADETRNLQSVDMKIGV

[8] = cited from earlier work
[9] = molecular target: T4, MMP-2 (Homo sapiens, UniProt P08253); details: cited from earlier work
T4 sequence (P08253 110-660): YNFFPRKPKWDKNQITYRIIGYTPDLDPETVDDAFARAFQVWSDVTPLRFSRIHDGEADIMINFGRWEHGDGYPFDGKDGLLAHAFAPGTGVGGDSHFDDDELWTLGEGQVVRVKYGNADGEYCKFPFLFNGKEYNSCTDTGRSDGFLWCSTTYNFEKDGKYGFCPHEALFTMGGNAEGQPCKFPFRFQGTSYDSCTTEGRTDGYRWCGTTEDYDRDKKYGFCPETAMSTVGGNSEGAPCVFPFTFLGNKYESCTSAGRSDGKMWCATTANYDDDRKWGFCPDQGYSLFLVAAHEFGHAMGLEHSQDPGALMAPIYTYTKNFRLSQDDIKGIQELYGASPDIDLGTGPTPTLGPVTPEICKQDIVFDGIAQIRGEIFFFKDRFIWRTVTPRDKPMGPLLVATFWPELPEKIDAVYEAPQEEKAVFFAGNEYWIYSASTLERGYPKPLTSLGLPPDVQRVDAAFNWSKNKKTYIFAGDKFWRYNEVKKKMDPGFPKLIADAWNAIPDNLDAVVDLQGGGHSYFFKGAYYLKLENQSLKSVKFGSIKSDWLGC

[10] = molecular target: cell surface-associated CD44 of IS-CD8+ T cells (UniProt P15379)
Chain of cell surface-associated CD44 of IS-CD8+ T cells (P15379 23-778): as the sequence (P15379 23-778) above

[11] = test system: MT1-MMP; details: HT1080 fibrosarcoma cell line; cited from earlier work
[12] = molecular target: T3, MMP-7; details: read-out: EC50 against MMP-7; cited from earlier work
[13] = test system: MT1-MMP; details: read-out: EC50 against MT1-MMP; cited from earlier work
[14] = test system: Zucker diabetic fatty rats; details: cited from earlier work
[15] = molecular target: T2, MMP-9; details: read-out: EC50 against MMP-9; cited from earlier work

In the case of `CNC(=O)[C@H](Cc1c[nH]c2ccccc12)NC(=O)[C@@H](CC(=O)NO)CC(C)C` [GM6001], the “activation of MMP-2 in adherent cells” value [1] was “blocked”, the “shedding of CD44 in adherent cells” value [2] was “blocked” and the “effect on MT1-MMP-CAT cleavage of cellular CD44” value [3] was “reversed the effect of MT1-MMP-CAT”.

For “MMP-2 (as incubated with α1-antitrypsin)”, the “cleavage of α1-antitrypsin in vitro, reducing SDS-gel electrophoresis” value [4] was “the MMP-2 proteolysis of α1-antitrypsin (a sensitive and readily available protein substrate of MMPs) and converting this 61 kDa serpin into a 55 kDa degradation fragment”.

In the case of `CNC(=O)[C@H](Cc1ccccc1)NC(=O)[C@H](CC(C)C)[C@H](CSc1cccs1)C(=O)NO` [Batimastat], the pIC50 ([5]; read-out: IC50 for MMP-9 inhibition) is listed as > 7.68 and the pIC50 [6] is listed as > 7.68.

Work on “catalytic domain of MT1-MMP (MT1-MMP-CAT) (enzyme)” yielded a homing of DiI-labeled IS-CD8+ cells into the pancreatic islets of NOD mice, 24 h [7] of 4.5 fold.

For `O=C(C[C@H](CSc1ccccc1)C(=O)O)c1ccc(-c2ccc(Cl)cc2)cc1` [BAY 12-9566], the “IC50 for MMP-9 inhibition” value [5] is given as “below 0.13 μg/mL”, the “time to peak plasma concentrations after dosing” value ([8]; after oral administration) is given as 0.5 to 2 h and the linearity of pharmacokinetics ([8]; normal volunteers, doses of up to 100 mg/day) is given as “linear”. For the same compound, the “effect of repeated administration on clearance” value ([8]; repeated administration) was “increased clearance” and the “IC50 for MMP-2 inhibition” value [9] was “below 0.13 μg/mL”.

In the case of “cell surface-associated MT1-MMP of IS-CD8+ T cells”, the “release of CD44 proteolytic fragments into medium, Western blotting” value [10] was “release of the CD44 proteolytic fragments into medium was detected only in adherent IS-CD8^+ cells”.

For `O=P(O)(O)C(Cl)(Cl)P(=O)(O)O` [Clodronate], the “expression of MT1-MMP protein and messenger RNA” value [11] is given as “inhibited”.

In the case of `CC(C)[C@H](NS(=O)(=O)c1ccc(-c2ccc(Br)cc2)cc1)C(=O)O` [PD166793, (S)-2-(4′-bromo-biphenyl-4-sulfonylamino)-3-methyl-butyric acid], the pEC50 [12] is given as 5.14, the pEC50 [13] is given as 6.62 and the β cell mass [14] is given as “preserved β cell mass”. For the same compound, the pEC50 [15] was 5.10.
